According to paper PMC8618880, “Discovery of GOT1 Inhibitors from a Marine-Derived Aspergillus terreus That Act against Pancreatic Ductal Adenocarcinoma” (Marine Drugs, 2021):

How the values were obtained:
GOT1 [1] = molecular target: T1, GOT1 (Homo sapiens, UniProt P17174); assay: GOT1 enzymatic activity (inhibition) assay, MDH-coupled, absorbance 340 nm; assay type: biochemical; conditions: in vitro, read-out: GOT1-inhibitory activity IC50
Description: The GOT1 enzymatic activity assay was carried out using a 96-well plate reader as previously reported. The 100 μL reaction system contained 0.1 mg/mL recombinant GOT1 protein, 1 mM α -KG, 1 mM NADH, 4 mM Asp, and 1 U/mL malate dehydrogenase, and measured absorbance at a wavelength of 340 nm. The degree of absorbance decrease was in direct proportion to GOT1 activity. The inhibitory activity in vitro was measured by adding different concentrations of compounds. SigmaPlot with the PlotEnzyme Kinetics Module was used to analyze the enzyme activity.

SW1990 xenografts = assay: SW1990 xenograft in CB-17/SCID mice; assay type: in vivo
Description: Animal treatment and experiments were conducted in the Experimental Animal Center. Commercial 8-week-old CB-17/SCID mice (male) were purchased from Huafukang, China. After being resuspended using 0.1 mL of PBS, SW1990 cells (3 × 10^6) were injected subcutaneously into the lower flanks of the mice. When the tumors attained a diameter of ~3 mm, the mice were randomly divided into three groups—2.5 mg/kg, 5 mg/kg, and control—and were subsequently injected intraperitoneally with normal saline or AH every day. A Vernier caliper was used to measure the size of the tumors. After two weeks of therapy, mice were euthanized under deep anesthesia (chloral hydrate, 10%, 10 μL/g), and tumor tissue metabolites were detected using the above method. All animal studies were carried out in accordance with the Huazhong University of Science and Technology’s guidelines.

SW1990 cells [2] = assay: Intracellular ROS measurement with DCFDA; assay type: cell-based, human; conditions: AH 10, 20 or 40 µM
Source text: GOT1 is a key enzyme that is involved in the production of Gln-dependent NADPH in PDAC, and catalyzes the reversible conversion of Asp to OAA. To investigate the effects of AH on Gln metabolism, the associated metabolites including OAA and malate (Mal) were detected. […] As excessive reactive oxygen species (ROS) can enhance cellular oxidative stress—resulting in damage to DNA, proteins, or lipids, causing apoptosis or necrosis [29]—we examined the physiological correlation between AH treatment and ROS response. 2,7-Dichlorofluorescein diacetate (DCFDA) was used to measure the intracellular ROS levels.

[3] = tested on: SW1990, PANC-1, and AsPC-1 cell lines; assay: MTT cell viability assay, PDAC cell lines; assay type: cell-based; conditions: Homo sapiens, 48 h, read-out: cytotoxicity IC50
Description: (§1) Pancreas (SW1990, AsPC-1, PANC-1), colorectal (HCT116), breast (HCC1806, MM231, MM453), and ovarian cancer cells (ES2), along with a nonmalignant human pancreatic duct epithelial cell line (HDPE6C7), were obtained from ATCC, and were cultured in 1640 medium or Dulbecco’s modified Eagle medium (DMEM) supplemented with 10% (v/v) fetal bovine serum (FBS), 100 μg/mL streptomycin, and 100 U/mL penicillin. Cells were maintained in a humidified atmosphere of 5% CO2 at 37 °C. MTT (3-(4,5-dimethylthiazol-2-yl)-2,5-diphenyl tetrazolium bromide) assay was used to assess the cell viability. Briefly, cells were seeded in 96-well plates at a density of 5 × 10^3 cells per well for 24 h. Then, the medium was removed, and the cells were treated with different concentrations (0.1–100 μM) of AH, with DMSO as a vehicle control. After incubation for 48 h, 100 μL of MTT solution (2 mg/mL) was added to each well, and the wells were incubated at 37 °C for another 4 h. The formed formazan crystals were dissolved in DMSO (200 μL/well) and shaken for 5 min. Then, the absorbance of the solution was measured at 490 nm with a microplate reader. IC50 values were interpolated from the resulting dose-dependent curves using GraphPad Prism 7.0. The reported IC50 values are the average of three independent experiments, each consisting of six replicates per concentration level (overall n = 18).

SW1990 cells [4] = assay: Cell cycle assay, PI staining, flow cytometry; assay type: cell-based, human
Description: The phase distribution of DNA content was determined via propidium iodide (PI) staining. Cells were treated with varying doses of AH or vehicle for 48 h, and then the cell pellets were stained in the dark for 30 min with 60 μg/mL RNase A and 30 μg/mL PI. Finally, CellQuest software (Becton-Dickinson, Franklin Lakes, NJ, USA) was used to perform flow cytometric studies. Three separate experiments were used to determine the cell cycle.

[5] = MTT cell viability assay, nonmalignant pancreatic duct epithelial cells; assay type: cell-based; conditions: human, HPDE6C7 nonmalignant pancreatic duct epithelial cells, read-out: cytotoxicity IC50
Description: as §1

GOT1 [6] = molecular target: T1, GOT1; assay: Microscale thermophoresis (MST) binding to GOT1; conditions: read-out: Kd value between AH and GOT1
Description: The Monolith NTTM Protein Labeling Kit was used to test the binding capacity of proteins to AH, according to the manufacturer’s instructions. GOT1 was labeled and diluted in a buffer containing 20 mM HEPES (pH 7.5) and Tween-20 (0.5 (v/v)%), and then incubated with different concentration of AH for 10 min at 37 °C. Subsequently, the materials were put into standard capillary tubes and tested for thermophoresis using a Monolith NT.115 instrument (NanoTemper Technologies, München, Germany). The parameters were set to temperature 25 °C, LED power 100%, and laser power 40%, with a 30 s on-time. NTAnalysis software was used to calculate the Kd values.

SW1990 cells [7] = assay: EDU staining and wound-healing cell migration test; assay type: cell-based, human; conditions: 0-40 µM, 0-48 h
Description: SW1990 cells were seeded in 6-well plates for 24 h. Each well was scratched with a 10 μL pipette tip, and then the plate was washed with PBS to peel off the suspended cells, before adding different concentrations of AH (0–40 μM). Images from the same area of the wound were taken separately under a microscope from 0 to 48 h.

SW1990 cells [8] = assay: Metabolite abundance and NADPH/NADP+ ratio in cells; assay type: cell-based, human; conditions: AH 10, 20 or 40 µM
Description: SW1990 cells were cultivated to around 50% confluence in DMEM media with 10 mM glucose, 2 mM glutamine, and 5% FBS. A complete medium was prepared prior to two hours of metabolite collection. Quantification kits were used to determine the abundance of Asp (Abcam, #ab102512, Cambridge, UK), Gln (BioVision, #K55, San Francisco, CA, USA), malate (BioVision, #K637, San Francisco, CA, USA), and OAA (Abcam, #ab83428, Cambridge, UK). According to the manufacturer’s instructions, we collected some cells and homogenized them in the buffers provided. The supernatants were centrifuged, and then deproteinized using a 10 K spin column before being analyzed and compared to standard curves.

SW1990 cells [9] = assay: Annexin V-FITC/PI apoptosis assay by flow cytometry; assay type: cell-based, human; conditions: 48 h
Description: The Annexin V–FITC apoptosis kit was purchased from USA BD PharMingen™. In brief, different concentrations of AH were added to the wells for 48 h, and then the cells were harvested, before being resuspended in Annexin-binding buffer and incubated with Annexin V–FITC (10 mg/mL) and PI in the dark for 15 min. Flow cytometry was used to detect the stained cells and analyze the apoptosis immediately.

[10] = 2.5 and 5 mg/kg/d intraperitoneal, 14 days
[11] = tumor tissue after 14 days treatment

T1 sequence (P17174 whole entry): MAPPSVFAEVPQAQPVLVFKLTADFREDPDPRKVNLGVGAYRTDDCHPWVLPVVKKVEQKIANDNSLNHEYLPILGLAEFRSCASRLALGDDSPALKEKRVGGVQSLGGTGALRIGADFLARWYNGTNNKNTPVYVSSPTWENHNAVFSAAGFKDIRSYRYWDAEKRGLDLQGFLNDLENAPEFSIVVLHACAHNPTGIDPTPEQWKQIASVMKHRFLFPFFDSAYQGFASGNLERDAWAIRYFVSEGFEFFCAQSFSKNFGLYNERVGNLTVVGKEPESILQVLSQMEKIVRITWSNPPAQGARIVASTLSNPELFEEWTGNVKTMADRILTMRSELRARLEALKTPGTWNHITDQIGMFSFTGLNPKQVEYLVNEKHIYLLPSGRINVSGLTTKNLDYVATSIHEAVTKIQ

With `COC(=O)[C@]1(Cc2ccc(O)c(CC=C(C)C)c2)OC(=O)C(O)=C1c1ccc(O)c(CC=C(C)C)c1` [Compound 12, (+)-3′,3′-di-(dimethylallyl)-butyrolactone II] the IC50 (GOT1 [1]) was 26.38 ± 0.1 µM.
`CO[C@H]1OC(=O)C(c2ccc(O)cc2)=C1Cc1ccc(O)c(CC=C(C)C)c1` [Compound 5, (+)-asperteretone B] showed an IC50 (GOT1 [1]) of 19.16 ± 0.15 µM.
For `CC(C)=CCc1cc(/C=C2\OC(=O)C(c3ccc(O)c(CC=C(C)C)c3)=C2O)ccc1O` [Compound 6, aspulvinone H], the “body weight of the mice” value (SW1990 xenografts; [10]) was “no significant changes”, the “histomorphology of the mice” value (SW1990 xenografts; [10]) was “no significant changes” and the “tumor volume vs control group” value (SW1990 xenografts; 2.5 and 5 mg/kg/d intraperitoneal, 14 days, CB-17/SCID mice) was “significantly smaller”. For the same molecule, the “tumor tissue Asp” value (SW1990 xenografts; [11]) was “increased”, the “tumor tissue Gln” value (SW1990 xenografts; [11]) was “increased” and the “tumor tissue Mal” value (SW1990 xenografts; [11]) was “decreased”. For the same molecule, the “tumor tissue OAA” value (SW1990 xenografts; [11]) was “decreased”, the “tumor tissue proportion of NADPH/NADP+” value (SW1990 xenografts; [11]) was “decrease” and the “intracellular ROS level” value (SW1990 cells [2]) was “positively correlated”. The IC50 [3] was 6.32 to 10.5 µM, the “proportion of S-phase cells” value (SW1990 cells [4]; SW1990, 10 µM) was 32.5% and the “proportion of cells in G0/G1 phase” value (SW1990 cells [4]; SW1990, 10 µM) was 59.4%. For the same molecule, the “proportion of S-phase cells” value (SW1990 cells [4]; SW1990, 20 µM) was 38.6%, the “proportion of cells in G0/G1 phase” value (SW1990 cells [4]; SW1990, 20 µM) was 48.6% and the “proportion of S-phase cells” value (SW1990 cells [4]; SW1990, 40 µM) was 43.9%. For the same molecule, the “proportion of cells in G0/G1 phase” value (SW1990 cells [4]; SW1990, 40 µM) was 43.5%, the “change in G2/M phase” value (SW1990 cells [4]; SW1990, high-dose AH) was “only a slight increase” and the IC50 at 48 h [5] was over 100 µM. The Kd (GOT1 [6]) was 2.14 ± 0.47 µM, the IC50 (GOT1 [1]) was 5.91 ± 0.04 µM and the “proliferation and migration (EDU staining, wound healing)” value (SW1990 cells [7]) was “anti-proliferative effect”. The “content of Asp” value (SW1990 cells [8]) was “increasing”, the “content of Mal” value (SW1990 cells [8]) was “reduced” and the “content of OAA” value (SW1990 cells [8]) was “reduced”. For the same molecule, the “ratio of NADPH/NADP+” value (SW1990 cells [8]) was “remarkably decreased”, the apoptosis induction rate (SW1990 cells [9]; SW1990, 10 µM) was 9.5% and the apoptosis induction rate (SW1990 cells [9]; SW1990, 40 µM) was 80.2%.
